The subject of one assay is KB-3-1. In words: Cell survival assay (SRB), KB-3-1. It counts as cell-based, human. The following applies: Homo sapiens, KB 3-1, KB-3-1 cells (paclitaxel-sensitive parent); read-out: In vitro IC50 (nM) KB-3-1. A digest of the protocol:
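Growth inhibition (IC50) is derived from SRB-measured protein content after a 3-day, duplicate exposure to serially diluted compound.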

A further assay deals with KB-8-5 (MDR1+). The assay is described as follows: Cell survival assay (SRB), KB-8-5 (MDR1+). The following applies: for IC50: Homo sapiens, MDR1, read-out: In vitro IC50 (nM) KB85.
A further assay concerns KB-V1 (MDR1++). The assay is described as follows: Cell survival assay (SRB), KB-V1 (MDR1++). The following applies: for IC50: Homo sapiens, read-out: In vitro IC50 (nM) KBV1.

The term IC50 denotes the concentration that inhibits the measured activity by half.

Consider `CN[C@H](C(=O)N[C@H](C(=O)N(C)[C@H](/C=C(\C)C(=O)O)C(C)C)C(C)(C)C)C(C)(C)c1ccsc1` [Example 23, N-Methyl-3-thien-3-yl-L-valyl-N^1-[(1S,2E)-3-carboxy-1-isopropylbut-2-enyl]-N^1,3-dimethyl-L-valinamide], for which the IC50 with KB-3-1 was 2.1 nM. Moreover, in the assay on KB-8-5 (MDR1+), the “Ratio KB85/KB” value stood at 3.1 and the IC50 stood at 6.6 nM. For the same molecule, in the assay on KB-V1 (MDR1++), the “Ratio KBV1/KB” value was found to be 345.0 and the half-inhibitory concentration (IC50) came out at 724 nM.
The matching figures for `CN[C@@H](C(=O)N[C@H](C(=O)N(C)[C@H](/C=C(\C)C(=O)O)C(C)C)C(C)(C)C)C(C)(C)c1cccc(C(F)(F)F)c1` [Example 63, N,β,β-Trimethyl-3-(trifluoromethyl)-D-phenylalanyl-N^1-[(1S,2E)-3-carboxy-1-isopropyl-2-butenyl]-N^1,3-dimethyl-L-valinamide]: 19.1 nM, 2.4, 45.7 nM, 69.0 and 1320 nM.
The matching figures for `CNC(C(=O)N[C@H](C(=O)N(C)[C@@H](/C=C(\C)C(=O)O)C(C)C)C(C)(C)C)C1(c2ccccc2)CCCCC1` (stereo partly drawn) [Example 73, (2E,4R)-2,5-dimethyl4-(methyl{3-methyl-N-[(methylamino)(1-phenylcyclohexyl)acetyl]-L-valyl}amino)-2-hexenoic Acid]: 204 nM, 1.8, 363 nM, 14.7 and not below 3000 nM.
The matching figures for `CN[C@H](C(=O)N[C@H](C(=O)N(C)[C@H](/C=C(\C)C(=O)NCCc1ccccc1)C(C)C)C(C)(C)C)C(C)(C)c1ccccc1` [Example 112, N,β,β-trimethyl-L-phenylalanyl-N^1-{(1S,2E)-1-isopropyl-3-methyl4-oxo4-[(2-phenylethyl)amino]but-2-enyl}-N^1,3-dimethyl-L-valinamide]: 163 nM, 1.4, 226 nM, 10.8 and 1770 nM.
In the case of `C/C(=C\[C@H](C(C)C)N(C)C(=O)[C@@H](NC(=O)[C@@H](N(C)CCO)C(C)(C)c1ccccc1)C(C)(C)C)C(=O)O` [Example 53, N-(2-hydroxyethyl)-N,β,β-trimethyl-L-phenylalanyl-N^1-[(1S,2E)-3-carboxy-1-isopropylbut-2-enyl]-N^1,3-dimethyl-L-valinamide], the IC50 was 44.7 nM in the assay with KB-3-1, 61.7 nM in the assay on KB-8-5 (MDR1+) and not below 3000 nM in the assay with KB-V1 (MDR1++). In the assay with KB-8-5 (MDR1+), the “Ratio KB85/KB” value is recorded as 1.4. Also, in the assay on KB-V1 (MDR1++), the “Ratio KBV1/KB” value came to 67.1.
For `CN[C@H](C(=O)N[C@H](C(=O)N(C)[C@H](/C=C(\C)C(=O)N[C@@H](CCSC)C(=O)O)C(C)C)C(C)(C)C)C(C)(C)c1ccccc1` [Example 145, N,β,β-trimethyl-L-phenylalanyl-N 1-((1S,2E)4-{[(1S)-1-carboxy-3-(methylthio)propyl]amino}-1-isopropyl-3-methyl-4-oxobut-2-enyl)-N 1,3-dimethyl-L-valinamide] the same measures were 131 nM, 1600 nM, more than 3000 nM, 12.2 and 22.9.
For `CCC(CC)(c1ccccc1)[C@@H](NC)C(=O)N[C@H](C(=O)N(C)[C@H](/C=C(\C)C(=O)O)C(C)C)C(C)(C)C` [Example 126, β,β-diethyl-N-methyl-D-phenylalanyl-N^1-[(1S,2E)-3-carboxy-1-isopropylbut-2-enyl]-N^1,3-dimethyl-L-valinamide], the IC50 in the assay with KB-3-1 turned out to be 18 nM; with KB-8-5 (MDR1+), 23 nM; in the assay with KB-V1 (MDR1++) it was 1140 nM. In addition, the “Ratio KB85/KB” value in the assay on KB-8-5 (MDR1+) was 1.3. Besides, the “Ratio KBV1/KB” value in the assay on KB-V1 (MDR1++) is 63.3.

(Values after patent US20040121965A1, “Method of treating resistant tumors” (Wyeth Holdings Corporation, priority 2002, published 2004).)
